Measurements: the NIST ThermoML archive (doi:10.1016/j.jct.2009.05.009)

Assay: xn = mol fraction of the nth substance listed
Details: 101.3 kPa, Liquid, Vibrating tube method

CCCCn1cc[n+](C)c1.F[P-](F)(F)(F)(F)F [1-butyl-3-methylimidazolium hexafluorophosphate] + O
mass density [kg/m3]
Details | x2 = 0 | x2 = 0.0431 | x2 = 0.0982 | x2 = 0.1222 | x2 = 0.1566 | x2 = 0.1873 | x2 = 0.2548 | x2 = 0.2971
298.15 K | 1368.3 | 1366.5 | 1363.5 | 1362.1 | 1360.1 | 1358.5 | 1355.5 | 1354.1
323.15 K | 1347.7 | 1345.6 | 1342.2 | 1340.6 | 1338.5 | 1336.4 | 1332.3 | 1329.9
